Experimental data taken from US20250074901A1, “NOVEL HETEROARYL COMPOUNDS” (ICAGEN, LLC, priority 2021, published 2025).

Molecular target: T1, Kv7.2 (Homo sapiens, UniProt O43526)
T1 construct: expressed in transfected cells
Test: Activation of Kv7.2 (in vitro assay, concentration response curve)
Assay type: cell-based
Settings: for Emax: Kv7.2 activation max %; for EC50: activation of Kv7.2
How it was run: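 Agonist activity was measured in vitro across a range of compound concentrations and plotted as a sigmoidal concentration–response curve. EC50 is the concentration giving 50% of that compound's own maximal response (Emax).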

Emax | EC50 | Compound
87% | 380 nM | O=C(NCc1ccnc(OCC(F)(F)F)c1)NC(C(F)(F)F)C(F)(F)F [Example 285, 1-(1,1,1,3,3,3-hexafluoropropan-2-yl)-3-[[2-(2,2,2-trifluoroethoxy)pyridin-4-yl]methyl]urea]
48% | 220 nM | O=C(NCc1ccnc(OC(F)F)c1)N[C@@H]1CC[C@H](C(F)F)C1 (racemic) [Example 193, 1-[[2-(difluoromethoxy)pyridin-4-yl]methyl]-3-[rac-(1R,3S)-3-(difluoromethyl)cyclopentyl]urea]
45% | 2470 nM | COc1cccc(NC(=O)NCc2ccnc(OC(F)F)c2)c1 [Example 83, 1-[[2-(difluoromethoxy)pyridin-4-yl]methyl]-3-(3-methoxyphenyl)urea]
50% | 280 nM | O=C(NCc1ccnc(OC(F)F)c1)N[C@H]1C[C@H](C(F)F)C1 [Example 136, 1-[[2-(difluoromethoxy)pyridin-4-yl]methyl]-3-[(1r,3r)-3-(difluoromethyl)cyclobutyl]urea]
78% | 2570 nM | O=C(NCc1ccnc(OC(F)F)c1)N[C@@H]1CC[C@@H]1C(F)(F)F (racemic) [Example 255, 1-[[2-(difluoromethoxy)pyridin-4-yl]methyl]-3-[rac-(1R,2S)-2-(trifluoromethyl)cyclobutyl]urea]
65% | 170 nM | O=C(Nc1cccc(Cl)c1F)NC(CO)c1ccnc(OC(F)F)c1 (centres unmarked) [Example 270, 1-(3-chloro-2-fluorophenyl)-3-[1-[2-(difluoromethoxy)pyridin-4-yl]-2-hydroxyethyl]urea]
53% | 4970 nM | COc1cc(CNC(=O)NC23CCC(F)(CC2)CC3)ccn1 [Example 129, 1-(4-fluoro-1-bicyclo[2.2.2]octanyl)-3-[(2-methoxypyridin-4-yl)methyl]urea]
50% | 8300 nM | O=C(NCc1ccnc(OC(F)F)c1)NC1(C(F)(F)F)CC1 [Example 175, 1-[[2-(difluoromethoxy)pyridin-4-yl]methyl]-3-[I-(trifluoromethyl)cyclopropyl]urea]
48% | 160 nM | O=C(NCc1ccnc(OCC(F)(F)F)c1)NCC1(F)CCC1 [Example 210, 1-[(1-fluorocyclobutyl)methyl]-3-[[2-(2,2,2-trifluoroethoxy)pyridin-4-yl]methyl]urea]
101% | 590 nM | O=C(NCc1ccnc(-n2cccn2)c1)N[C@@H]1C[C@H]2CC[C@@H]1C2 (racemic) [Example 7, 1-[(2-pyrazol-1-ylpyridin-4-yl)methyl]-3-[rac-(1R,2R,4S)-2-bicyclo[2.2.1]heptanyl]urea]
49% | 430 nM | O=C(NCc1ccnc(OC(F)F)c1)NC1CCC(OC(F)F)C1 (centres unmarked) [Example 264, 1-[3-(difluoromethoxy)cyclopentyl]-3-[[2-(difluoromethoxy)pyridin-4-yl]methyl]urea]
58% | 80 nM | O=C(Nc1cccc(Cl)c1)N[C@@H](CO)c1ccnc(OCC(F)(F)F)c1 [Example 145, 1-(3-chlorophenyl)-3-[(1R)-2-hydroxy-1-[2-(2,2,2-trifluoroethoxy)pyridin-4-yl]ethyl]urea]
94% | 250 nM | O=C(NCc1ccnc(OC(F)F)c1)NC1C[C@H]2C[C@@H]1CC2(F)F (mixture of isomers) [Example 165, 1-[[2-(difluoromethoxy)pyridin-4-yl]methyl]-3-[rac-(1R,4R)-5,5-difluoro-2-bicyclo[2.2.1]heptanyl]urea]
55% | 1090 nM | O=C(NCc1ccnc(OC(F)F)c1)N[C@@H](C(F)F)C1CC(F)(F)C1 [Example 230, 1-[(1R)-1-(3,3-difluorocyclobutyl)-2,2-difluoroethyl]-3-[[2-(difluoromethoxy)pyridin-4-yl]methyl]urea]
61% | 6310 nM | CC(F)COc1cc(CNC(=O)NC23CC(F)(C2)C3)ccn1 (centres unmarked) [Example 160, 1-(3-fluoro-1-bicyclo[1.1.1]pentanyl)-3-[[2-(2-fluoropropoxy)pyridin-4-yl]methyl]urea]
66% | 460 nM | O=C(NCc1ccnc(OC(F)F)c1)N[C@@H]1[C@H]2CCC(F)(F)[C@H]21 (racemic) [Example 172, 1-[[2-(difluoromethoxy)pyridin-4-yl]methyl]-3-[rac-(1R,5S,6R)-2,2-difluoro-6-bicyclo[3.1.0]hexanyl]urea]
68% | 7430 nM | O=C(NCc1ccnc(OC(F)F)c1)NN1CC2CCCC2C1 (centres unmarked) [Example 114, 1-(3,3a,4,5,6,6a-hexahydro-1H-cyclopenta[c]pyrrol-2-yl)-3-[[2-(difluoromethoxy)pyridin-4-yl]methyl]urea]
64% | 5070 nM | C[C@]1(O)CCCC[C@@H]1NC(=O)NCc1ccnc(OC(F)F)c1 (racemic) [Example 148, 1-[[2-(difluoromethoxy)pyridin-4-yl]methyl]-3-[rac-(1R,2R)-2-hydroxy-2-methylcyclohexyl]urea]

Emax | EC50 | Compound
56% | 450 nM | O=C(NCc1ccnc(OC(F)F)c1)NC1CCC(F)(F)C1 (centres unmarked) [Example 93, 1-(3,3-difluorocyclopentyl)-3-[[2-(difluoromethoxy)pyridin-4-yl]methyl]urea]
63% | 240 nM | O=C(Nc1cccc(Cl)c1)NC(CO)c1ccnc(OCC(F)F)c1 (centres unmarked) [Example 259, 1-(3-chlorophenyl)-3-[1-[2-(2,2-difluoroethoxy)pyridin-4-yl]-2-hydroxyethyl]urea]
85% | 30 nM | O=C(NCc1ccnc(OC(F)F)c1)N[C@@H]1C[C@H]2CCC[C@H]2C1 [Example 190, 1-[[2-(difluoromethoxy)pyridin-4-yl]methyl]-3-[(2s,3aR,6aS)-1,2,3,3a,4,5,6,6a-octahydropentalen-2-yl]urea]
56% | 540 nM | O=C(NCc1ccnc(OC(F)F)c1)NC1CCCCC1(O)C(F)(F)F (centres unmarked) [Example 147, 1-[[2-(difluoromethoxy)pyridin-4-yl]methyl]-3-[2-hydroxy-2-(trifluoromethyl)cyclohexyl]urea]
62% | 120 nM | CC(F)(F)COc1cc(CNC(=O)N[C@H]2C[C@H](C(F)(F)F)C2)ccn1 [Example 121, 1-[[2-(2,2-difluoropropoxy)pyridin-4-yl]methyl]-3-[(1r,3r)-3-(trifluoromethyl)cyclobutyl]urea]
88% | 80 nM | O=C(NCc1ccnc(OCC(F)(F)F)c1)NC1CC(C2CC2)C1 (centres unmarked) [Example 235, 1-(3-cyclopropylcyclobutyl)-3-[[2-(2,2,2-trifluoroethoxy)pyridin-4-yl]methyl]urea]
68% | 160 nM | O=C(NCc1ccnc(OC(F)F)c1)N[C@@H]1CC[C@H](C(F)(F)F)C1 [Example 146, 1-[[2-(difluoromethoxy)pyridin-4-yl]methyl]-3-[(1R,3S)-3-(trifluoromethyl)cyclopentyl]urea]
58% | 260 nM | O=C(NCc1ccnc(OC(F)F)c1)NC(C(F)(F)F)C(F)(F)F [Example 228, 1-[[2-(difluoromethoxy)pyridin-4-yl]methyl]-3-(1,1,1,3,3,3-hexafluoropropan-2-yl)urea]
51% | 510 nM | CC(NC(=O)NCc1ccnc(OC(F)F)c1)C1CCC1 (centres unmarked) [Example 17, 1-(1-cyclobutylethyl)-3-[[2-(difluoromethoxy)pyridin-4-yl]methyl]urea]
41% | 7270 nM | O=C(NCc1ccnc(C(F)(F)F)c1)NC12CC(F)(C1)C2 [Example 153, 1-(3-fluoro-1-bicyclo[1.1.1]pentanyl)-3-[[2-(trifluoromethyl)pyridin-4-yl]methyl]urea]
48% | 2410 nM | O=C(NCc1ccnc(OC(F)F)c1)N[C@H]1C[C@@H](C(F)F)C1 [Example 137, 1-[[2-(difluoromethoxy)pyridin-4-yl]methyl]-3-[(1s,3s)-3-(difluoromethyl)cyclobutyl]urea]
81% | 90 nM | O=C(NCc1ccnc(OC(F)F)c1)N[C@@H]1C[C@H]2CC[C@@H]1C2 (racemic) [Example 12, 1-[[2-(difluoromethoxy)pyridin-4-yl]methyl]-3-[rac-(1R,2R,4S)-2-bicyclo[2.2.1]heptanyl]urea]
65% | 1510 nM | O=C(NCc1ccnc(OC(F)F)c1)NC12CC(C1)C2 [Example 47, 1-(1-bicyclo[1.1.1]pentanyl)-3-[[2-(difluoromethoxy)pyridin-4-yl]methyl]urea]
62% | 540 nM | O=C(NCc1ccnc(CC(F)(F)F)c1)N[C@H]1CCC[C@@H](C(F)(F)F)C1 (racemic) [Example 276, 1-[rac-(1R,3S)-3-(trifluoromethyl)cyclohexyl]-3-[[2-(2,2,2-trifluoroethyl)pyridin-4-yl]methyl]urea]
52% | 190 nM | O=C(NCc1ccnc(OCC(F)(F)F)c1)NCC1CCC1 [Example 21, 1-(cyclobutylmethyl)-3-[[2-(2,2,2-trifluoroethoxy)pyridin-4-yl]methyl]urea]
45% | 340 nM | O=C(NCc1ccnc(OCC(F)(F)F)n1)N[C@H]1C[C@H](C(F)(F)F)C1 [Example 204, 1-[[2-(2,2,2-trifluoroethoxy)pyrimidin-4-yl]methyl]-3-[(1r,3r)-3-(trifluoromethyl)cyclobutyl]urea]
57% | 4400 nM | O=C(NCc1ccnc(OC(F)F)c1)NC1CC1(F)F (centres unmarked) [Example 173, 1-(2,2-difluorocyclopropyl)-3-[[2-(difluoromethoxy)pyridin-4-yl]methyl]urea]
74% | 130 nM | O=C(NCc1ccnc(OC(F)F)c1)N[C@H]1C[C@@H]2[C@H](C1)C2(F)F [Example 189, 1-[[2-(difluoromethoxy)pyridin-4-yl]methyl]-3-[(1R,3r,5S)-6,6-difluoro-3-bicyclo[3.1.0]hexanyl]urea]

Compound | Emax | EC50
C[Si](C)(C)CCNC(=O)NCc1ccnc(OC(F)F)c1 [Example 212, 1-[[2-(difluoromethoxy)pyridin-4-yl]methyl]-3-(2-trimethylsilylethyl) urea] | 82% | 400 nM
